Drawing on US20230331683A1, “INHIBITORS OF SPINSTER HOMOLOG 2 (SPNS2) FOR USE IN THERAPY” (University of Virginia Patent Foundation, priority 2020, published 2023), this text covers IC50 for 39 compounds.

Structures can show the parent of a compound that is named as a salt.

A word on the IC50: it is the concentration that gives 50% inhibition.

Sequence of mouse SPNS2 (Q91VM4 whole entry): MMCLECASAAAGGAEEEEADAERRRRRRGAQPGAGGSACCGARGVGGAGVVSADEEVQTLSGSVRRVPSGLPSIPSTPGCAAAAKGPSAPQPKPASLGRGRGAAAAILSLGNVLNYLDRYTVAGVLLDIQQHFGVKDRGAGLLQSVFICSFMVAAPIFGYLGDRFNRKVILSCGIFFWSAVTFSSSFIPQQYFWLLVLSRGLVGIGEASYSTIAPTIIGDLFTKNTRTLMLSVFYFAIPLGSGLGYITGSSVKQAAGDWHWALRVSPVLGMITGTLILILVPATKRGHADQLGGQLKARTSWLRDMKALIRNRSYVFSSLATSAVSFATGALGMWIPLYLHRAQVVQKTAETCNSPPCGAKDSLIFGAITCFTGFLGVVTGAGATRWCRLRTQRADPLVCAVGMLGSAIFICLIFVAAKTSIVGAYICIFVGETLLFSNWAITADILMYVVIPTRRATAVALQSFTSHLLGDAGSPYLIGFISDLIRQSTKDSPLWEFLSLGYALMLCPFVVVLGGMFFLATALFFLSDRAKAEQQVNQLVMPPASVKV

In this test the target is mouse SPNS2 (Mus musculus (Mouse), UniProt Q91VM4). The test is described as follows: S1P Transporter Assay (S1P release from whole cells expressing SPNS2). The class given is cell-based. Conditions: in vitro inhibition against SPNS2; HeLa cells expressing mouse SPNS2, S1P release into media after 18 hours; compounds as their pharmaceutical salts. On the procedure:
Transporter assays are vectorial and therefore require measurement of the transported analyte in different compartments. The S1P transporter SPNS2 only exports S1P, which obviates measuring uptake of S1P into transporter-expressing cells. Thus, transporter activity was determined by quantifying S1P release from whole cells expressing SPNS2. SPNS2 inhibitor potency was assessed using whole cell assays. HeLa cells expressing mouse SPNS2 were used to determine inhibitor potency (IC50). Cells were plated onto 12 well plates and assayed when the cell monolayers became confluent. Cell growth media (RPMI-1640 containing 10% fetal bovine serum) was replaced with 2 mL of serum-free media (RPMI-1640) containing fatty acid free bovine serum albumin (BSA) (0.2 % w/v) and supplemented with 4-deoxypyridoxine (DOP) (1 mM), NaF (2 mM), Na3VO4 (0.2 mM) to inhibit S1P degradation. Test articles (1 × 10-9 - 1 × 10^-4 M) were assayed in duplicate or triplicate. After 18 hours, media was collected, an internal recovery standard (0.005 mL of 5 × 10^-7 M deuterated (d7) S 1P in methanol) was added, the BSA was precipitated with trichloroacetic acid and the bound S1P extracted with methanol. S1P and S1P-d7 were measured by liquid chromatography mass spectrometry. Inhibitor potency at the human SPNS2 ortholog was determined by an analogous assay using U-937 cells, which endogenously express human SPNS2.
Consider `CCCCCCCCc1ccc2oc(NCCN)nc2c1` [Compound 13a, N^1-octylbenzo[d]oxazol-2-yl)ethane-1,2-diamine hydrochloride], for which the IC50 was above 2 µM.

Regarding `CCCCCCCCCCc1ccc2nc(N3CC[C@@H](N)C3)oc2c1` [Compound 13aa, (R)(6-decylbenzo[d]oxazol-2-yl)pyrrolidin-3-amine Hydrochloride], the concentration for half-maximal inhibition (IC50) was above 2 µM.

Consider `CCCCCCCCCCc1ccc2nc(NC3CCNCC3)oc2c1` [Compound 13ab, 6-decyl-N-(piperidin-4-yl)benzo[d]oxazol-2-amine Hydrochloride], for which the half-inhibitory concentration (IC50) is at most 2 µM.

As for `CCCCCCCCCc1ccc2oc(NCCN)nc2c1` [Compound 13b, N^1-nonylbenzo[d]oxazol-2-yl)ethane-1,2-diamine hydrochloride], the IC50 is above 2 µM.

Take `CCCCCCCCCCc1ccc2oc(NCCN)nc2c1` [Compound 13c, N^1-decylbenzo[d]oxazol-2-yl)ethane-1,2-diamine hydrochloride]: the IC50 is above 2 µM.

In the case of `CCCCCCCCCCCc1ccc2oc(NCCN)nc2c1` [Compound 13d, N^1-undecylbenzo[d]oxazol-2-yl)ethane-1,2-diamine hydrochloride], the half-inhibitory concentration (IC50) is above 2 µM.

Take `CCCCCCCCCCCCc1ccc2oc(NCCN)nc2c1` [Compound 13e, N^1-dodecylbenzo[d]oxazol-2-yl)ethane-1,2-diamine hydrochloride]: the IC50 is above 2 µM.

For `CCCCCCCCCCc1ccc2oc(NCCCN)nc2c1` [Compound 13f, hydrochloride], the IC50 is above 2 µM.

Regarding `CCCCCCCCCCc1ccc2oc(NCCCCN)nc2c1` [Compound 13g, N^1-decylbenzo[d]oxazol-2-yl)butane-1,4-diamine carbamate hydrochloride], the IC50 is above 2 µM.

On to `CCCCCCCCCCc1ccc2oc(NCCCCCN)nc2c1` [Compound 13h, N^1-decylbenzo[d]oxazol-2-yl)pentane-1,5-diamine hydrochloride], for which the half-inhibitory concentration (IC50) was above 2 µM.

As for `CCCCCCCCCCc1ccc2oc(NC3CNC3)nc2c1` [Compound 13i, N-(azetidin-3-yl)-5-decylbenzo[d]oxazol-2-amine 2,2,2-trifluoroacetate], the IC50 was above 2 µM.

Regarding `CCCCCCCCCCc1ccc2oc(N[C@@H]3CNC[C@@H]3F)nc2c1` [Compound 13l, 5-decyl-N-((3R,4S)-4-fluoropyrrolidin-3-yl)benzo[d]oxazol-2-amine hydrochloride], the IC50 is at most 2 µM.

For the compound `CCCCCCCCCCc1ccc2oc(NC3CCNCC3)nc2c1` [Compound 13m, 5-decyl-N-(piperidin-4-yl)benzo[d]oxazol-2-amine Hydrochloride], the IC50 is at most 2 µM.

With `CCCCCCCCCCc1ccc2oc(N3CC[C@H](N)C3)nc2c1` [Compound 13n, (S)(5-decylbenzo[d]oxazol-2-yl)pyrrolidin-3-amine Hydrochloride], the IC50 is above 2 µM.

On to `CCCCCCCCCCc1ccc2oc(N3CC[C@@H](N)C3)nc2c1` [Compound 13o, (R)(5-decylbenzo[d]oxazol-2-yl)pyrrolidin-3-amine Hydrochloride], for which the IC50 is above 2 µM.

`CCCCCCCCCCc1ccc2oc(N3CCNCC3)nc2c1` [Compound 13p, 5-Decyl(piperazin-1-yl)benzo[d]oxazole Hydrochloride]: the IC50 is above 2 µM.

`CCCCCCCCCCc1ccc2nc(NCCN)oc2c1` [Compound 13q, N^1-decylbenzo[d]oxazol-2-yl)ethane-1,2-diamine hydrochloride]: the half-maximal inhibitory concentration (IC50) is above 2 µM.

Consider `CCCCCCCCCCc1ccc2nc(NCCCN)oc2c1` [Compound 13r, N^1-decylbenzo[d]oxazol-2-yl)propane-1,3-diamine hydrochloride], for which the IC50 is above 2 µM.

Turning to `CCCCCCCCCCc1cccc2nc(NCCN)oc12` [Compound 13u, N^1-decylbenzo[d]oxazol-2-yl)ethane-1,2-diamine hydrochloride], the IC50 is above 2 µM.

On to `CCCCCCCCCCc1cccc2nc(NCCCN)oc12` [Compound 13v, N^1-decylbenzo[d]oxazol-2-yl)propane-1,3-diamine hydrochloride], for which the IC50 was above 2 µM.

With `CCCCCCCCCCc1cccc2oc(NCCN)nc12` [Compound 13w, N^1-decylbenzo[d]oxazol-2-yl)ethane-1,2-diamine hydrochloride], the IC50 was above 2 µM.

For the compound `CCCCCCCCCCc1cccc2oc(NCCCN)nc12` [Compound 13x, N^1-decylbenzo[d]oxazol-2-yl)propane-1,3-diamine hydrochloride], the IC50 is above 2 µM.

As to `CCCCCCCCCCc1ccc2nc(N(CCN)CCN)oc2c1` [Compound 13y, N1-aminoethyl)-N1-(6-decylbenzo[d]oxazol-2-yl)ethane-1,2-diamine dihydrochloride], the IC50 is at most 2 µM.

`CCCCCCCCCCc1ccc2nc(N3CC[C@H](N)C3)oc2c1` [Compound 13z, (S)(6-decylbenzo[d]oxazol-2-yl)pyrrolidin-3-amine Hydrochloride]: the IC50 was above 2 µM.

With `CCCCCCCCCCc1ccc2nc(NCCN)sc2c1` [Compound 17a, N^1-decylbenzo[d]thiazol-2-yl)ethane-1,2-diamine hydrochloride], the IC50 is above 2 µM.

Consider `CCCCCCCCCCc1ccc2nc(NCCCN)sc2c1` [Compound 17b, N^1-decylbenzo[d]thiazol-2-yl)propane-1,3-diamine hydrochloride], for which the IC50 was above 2 µM.

With `CCCCCCCCCCc1ccc(NC(=O)N2CCC(N)CC2)cc1` [Compound 20a, 4-amino-N-(4-decylphenyl)piperidine-1-carboxamide Hydrochloride], the IC50 was at most 2 µM.

Take `CCCCCCCCCCc1ccc(NC(=O)NCCCN)cc1` [Compound 20b, 1-Aminopropyl)-3-(4-decylphenyl)urea Hydrochloride]: the IC50 is at most 2 µM.

As to `CCCCCCCCCCc1ccc(NC(=O)OCCN)cc1` [Compound 23a, 2-Aminoethyl (4-decylphenyl)carbamate Hydrochloride], the IC50 is above 2 µM.

Take `CCCCCCCCCCc1ccc(NC(=O)O[C@H]2CCNC2)cc1` [Compound 23b, (S)-pyrrolidin-3-yl (4-decylphenyl)carbamate Hydrochloride]: the half-inhibitory concentration (IC50) was above 2 µM.

In the case of `CCCCCCCCCCc1ccc(NC(=O)O[C@@H]2CCNC2)cc1` [Compound 23c, (R)-pyrrolidin-3-yl (4-decylphenyl)carbamate Hydrochloride], the IC50 is at most 2 µM.

As for `CCCCCCCCCCc1ccc(C(=O)N2CCNCC2)cc1` [Compound 26c, Decylphenyl)(piperazin-1-yl)methanone Hydrochloride], the IC50 is at most 2 µM.

With `CCCCCCCCCCc1ccc(C(=O)NCCCN)cc1` [Compound 26d, N-aminopropyl)-4-decylbenzamide Hydrochloride], the IC50 was at most 2 µM.

As to `CCCCCCCCCCc1ccc(C(=O)NCCN)cc1` [Compound 26e, N-aminoethyl)-4-decylbenzamide Hydrochloride], the IC50 was above 2 µM.

For `CCCCCCCCCCc1ccc2nc(CCCN)[nH]c2c1` [Compound 31, 3-decyl-1H-benzo[d]imidazol-2-yl)propan-1-amine Hydrochloride], the IC50 was above 2 µM.

In the case of `CCCCCCCCCCc1ccc(NC(=O)N[C@H]2CCNC2)cc1` [Compound 34, (S)(4-decylphenyl)-3-(pyrrolidin-3-yl)urea Hydrochloride], the half-inhibitory concentration (IC50) was at most 2 µM.

`CCCCCCCCCCc1ccc(NC(=O)N2CCNCC2)cc1` [Compound 35, N-decylphenyl)piperazine-1-carboxamide Hydrochloride]: the IC50 was at most 2 µM.

`CCCCCCCCCCc1ccc2oc(NCC3CCNCC3)nc2c1` [Compound 36, 5-decyl-N-(piperidin-4-ylmethyl)benzo[d]oxazol-2-amine]: the IC50 was above 2 µM.

As to `CCCCCCCCCCc1ccc(C(=O)NC2CCNCC2)cc1` [Compound 39, 4-decyl-N-(piperidin-4-yl)benzamide Hydrochloride], the IC50 is at most 2 µM.
